Experimental findings from ChEMBL document CHEMBL4725424, “The Resurrection of Phenotypic Drug Discovery” (ACS Med Chem Lett, 2020) are described below.

pIC50: −log10 of the molar value.

In assay [1] the target is Cyclin-dependent kinase 1/cyclin B1 (Homo sapiens, UniProt P06493). Kind of assay: Inhibition of CDK1/cyclinB (unknown origin). In kind it is protein-complex assay.
Another assay concerns the target CDK2/Cyclin A2 (Homo sapiens, UniProt P24941). Kind of assay: Inhibition of CDK2/cyclinA (unknown origin). The class given is protein-complex assay.
Assay [2] deals with Cyclin-dependent kinase 2/cyclin E1 (Homo sapiens, UniProt P24941). Kind of assay: Inhibition of CDK2/cyclinE (unknown origin). In kind it is protein-complex assay.
In another assay the target is CDK3/Cyclin E (Homo sapiens, UniProt Q00526). Kind of assay: Inhibition of CDK3/cyclinE (unknown origin). In kind it is protein-complex assay.
Chain of CDK3/Cyclin E (P24864 whole entry): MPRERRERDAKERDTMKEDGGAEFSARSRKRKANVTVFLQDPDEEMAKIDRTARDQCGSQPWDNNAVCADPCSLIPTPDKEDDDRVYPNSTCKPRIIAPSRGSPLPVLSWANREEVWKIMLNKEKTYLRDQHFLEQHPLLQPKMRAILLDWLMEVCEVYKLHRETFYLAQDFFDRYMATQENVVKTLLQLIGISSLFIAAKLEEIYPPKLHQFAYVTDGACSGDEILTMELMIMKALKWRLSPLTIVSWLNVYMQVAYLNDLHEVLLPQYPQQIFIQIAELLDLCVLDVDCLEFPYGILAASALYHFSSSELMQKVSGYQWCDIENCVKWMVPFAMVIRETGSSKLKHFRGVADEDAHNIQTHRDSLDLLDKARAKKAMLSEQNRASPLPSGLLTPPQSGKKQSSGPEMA
Chain of CDK3/Cyclin E (Q00526 whole entry): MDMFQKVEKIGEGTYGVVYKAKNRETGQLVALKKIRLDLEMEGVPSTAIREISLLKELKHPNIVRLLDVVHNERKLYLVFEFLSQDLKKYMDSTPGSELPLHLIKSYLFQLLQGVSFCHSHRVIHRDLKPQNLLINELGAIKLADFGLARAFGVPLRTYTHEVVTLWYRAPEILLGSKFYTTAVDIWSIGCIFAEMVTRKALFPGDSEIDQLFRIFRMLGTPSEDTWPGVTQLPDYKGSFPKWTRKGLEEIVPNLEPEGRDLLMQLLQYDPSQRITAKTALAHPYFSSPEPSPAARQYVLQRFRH
The target in assay [3] is Cyclin-dependent kinase 4/cyclin D1 (Homo sapiens, UniProt P11802). Kind of assay: Inhibition of CDK4/cyclinD (unknown origin). The class given is protein-complex assay.
Chain of Cyclin-dependent kinase 4/cyclin D1 (P11802 whole entry): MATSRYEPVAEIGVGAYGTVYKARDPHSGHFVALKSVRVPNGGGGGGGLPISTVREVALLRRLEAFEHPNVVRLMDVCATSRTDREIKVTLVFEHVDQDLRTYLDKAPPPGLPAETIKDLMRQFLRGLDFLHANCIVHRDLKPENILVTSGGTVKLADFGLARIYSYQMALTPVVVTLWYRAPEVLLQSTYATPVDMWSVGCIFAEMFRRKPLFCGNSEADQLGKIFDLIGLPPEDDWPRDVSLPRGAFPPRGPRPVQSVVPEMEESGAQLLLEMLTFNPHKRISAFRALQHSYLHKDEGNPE
Chain of Cyclin-dependent kinase 4/cyclin D1 (P24385 whole entry, further chain): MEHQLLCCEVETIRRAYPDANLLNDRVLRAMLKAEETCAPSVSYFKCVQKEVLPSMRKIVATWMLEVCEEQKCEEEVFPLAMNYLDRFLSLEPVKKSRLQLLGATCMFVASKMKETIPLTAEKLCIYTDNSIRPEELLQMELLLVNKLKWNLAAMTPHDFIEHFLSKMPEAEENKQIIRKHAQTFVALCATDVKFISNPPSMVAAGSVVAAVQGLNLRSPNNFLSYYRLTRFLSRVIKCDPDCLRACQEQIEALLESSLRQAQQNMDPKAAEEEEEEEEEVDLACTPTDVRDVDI
For assay [4], the target named is T1, Cyclin-dependent kinase 5/CDK5 activator 1 (Homo sapiens, UniProt Q00535). Kind of assay: Inhibition of CDK5/p35 (unknown origin). In kind it is protein-complex assay.
T1 sequence (Q00535 whole entry): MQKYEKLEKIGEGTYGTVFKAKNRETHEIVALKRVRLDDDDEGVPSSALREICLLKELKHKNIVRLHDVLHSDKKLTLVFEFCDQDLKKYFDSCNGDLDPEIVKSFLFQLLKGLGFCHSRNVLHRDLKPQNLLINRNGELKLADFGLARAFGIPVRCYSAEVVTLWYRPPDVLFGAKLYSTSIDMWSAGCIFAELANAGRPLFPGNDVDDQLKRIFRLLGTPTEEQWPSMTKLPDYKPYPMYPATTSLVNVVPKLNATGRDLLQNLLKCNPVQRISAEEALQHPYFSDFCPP
T1 sequence (Q15078 whole entry, further chain): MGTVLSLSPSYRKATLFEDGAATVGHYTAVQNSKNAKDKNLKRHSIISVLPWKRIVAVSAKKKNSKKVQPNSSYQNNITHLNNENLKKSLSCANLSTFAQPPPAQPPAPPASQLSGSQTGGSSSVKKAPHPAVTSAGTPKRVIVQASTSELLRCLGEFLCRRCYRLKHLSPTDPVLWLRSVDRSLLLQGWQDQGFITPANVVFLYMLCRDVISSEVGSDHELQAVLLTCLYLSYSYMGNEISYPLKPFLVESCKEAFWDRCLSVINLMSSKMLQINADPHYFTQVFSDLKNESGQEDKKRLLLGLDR
For assay [5], the target named is T1, Cyclin-dependent kinase 5/CDK5 activator 1. Kind of assay: Inhibition of CDK5/p25 (unknown origin). In kind it is protein-complex assay.
The nature of assay [6]: Inhibition of CDK8/cyclinD3 (unknown origin). More on the design: species or system Homo sapiens.
The next assay addresses CDK7/Cyclin H/MNAT1 (Homo sapiens, UniProt P50613). Kind of assay: Inhibition of CDK7/cyclinH/MAT1 (unknown origin). The class given is protein-complex assay.
The next assay has as its target CDK9/cyclin T1 (Homo sapiens, UniProt P50750). Kind of assay: Inhibition of CDK9/cyclinT1 (unknown origin). The class given is protein-complex assay.
Another assay is filed under the species Homo sapiens. Kind of assay: Selectivity index, ratio of IC50 for inhibition of CDK4/cyclinD (unknown origin) to IC50 for inhibition of CDK9/cyclinT1 (unknown origin).

Chain of CDK7/Cyclin H/MNAT1 (P51946 whole entry): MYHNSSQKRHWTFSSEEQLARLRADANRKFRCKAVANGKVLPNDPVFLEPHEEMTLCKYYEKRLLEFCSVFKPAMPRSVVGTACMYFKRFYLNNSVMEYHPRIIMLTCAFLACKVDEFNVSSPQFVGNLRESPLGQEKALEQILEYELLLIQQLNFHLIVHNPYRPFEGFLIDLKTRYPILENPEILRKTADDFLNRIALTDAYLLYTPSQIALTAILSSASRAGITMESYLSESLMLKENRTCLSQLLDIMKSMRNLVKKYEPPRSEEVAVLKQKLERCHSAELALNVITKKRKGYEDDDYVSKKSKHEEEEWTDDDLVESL
Chain of CDK7/Cyclin H/MNAT1 (P50613 whole entry): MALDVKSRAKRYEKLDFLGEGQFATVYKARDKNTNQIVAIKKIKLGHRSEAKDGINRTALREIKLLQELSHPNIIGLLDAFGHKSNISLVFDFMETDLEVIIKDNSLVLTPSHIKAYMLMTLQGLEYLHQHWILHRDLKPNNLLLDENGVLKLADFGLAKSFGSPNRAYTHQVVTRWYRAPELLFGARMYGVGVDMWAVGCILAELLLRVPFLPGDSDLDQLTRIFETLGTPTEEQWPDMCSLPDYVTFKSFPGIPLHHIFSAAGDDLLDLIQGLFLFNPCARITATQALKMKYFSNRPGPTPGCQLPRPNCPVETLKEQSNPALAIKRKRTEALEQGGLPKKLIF
Chain of CDK7/Cyclin H/MNAT1 (P51948 whole entry, further chain): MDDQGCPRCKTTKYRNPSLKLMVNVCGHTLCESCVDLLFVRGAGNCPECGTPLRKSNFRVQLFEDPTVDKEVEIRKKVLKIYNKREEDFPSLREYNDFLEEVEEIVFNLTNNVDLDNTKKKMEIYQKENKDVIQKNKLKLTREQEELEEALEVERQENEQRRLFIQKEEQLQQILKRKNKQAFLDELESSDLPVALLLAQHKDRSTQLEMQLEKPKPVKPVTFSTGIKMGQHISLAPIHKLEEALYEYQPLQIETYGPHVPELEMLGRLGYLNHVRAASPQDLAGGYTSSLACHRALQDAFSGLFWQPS
Chain of Cyclin-dependent kinase 1/cyclin B1 (P06493 whole entry): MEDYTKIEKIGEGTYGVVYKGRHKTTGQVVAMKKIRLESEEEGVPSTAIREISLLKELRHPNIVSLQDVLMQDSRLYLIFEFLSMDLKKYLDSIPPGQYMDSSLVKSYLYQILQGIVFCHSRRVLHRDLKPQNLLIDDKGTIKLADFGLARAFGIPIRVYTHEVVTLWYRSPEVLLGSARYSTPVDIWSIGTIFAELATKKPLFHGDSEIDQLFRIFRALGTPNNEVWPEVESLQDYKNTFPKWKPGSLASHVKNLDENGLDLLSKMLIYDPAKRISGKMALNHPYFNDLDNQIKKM
Chain of Cyclin-dependent kinase 1/cyclin B1 (P14635 whole entry, further chain): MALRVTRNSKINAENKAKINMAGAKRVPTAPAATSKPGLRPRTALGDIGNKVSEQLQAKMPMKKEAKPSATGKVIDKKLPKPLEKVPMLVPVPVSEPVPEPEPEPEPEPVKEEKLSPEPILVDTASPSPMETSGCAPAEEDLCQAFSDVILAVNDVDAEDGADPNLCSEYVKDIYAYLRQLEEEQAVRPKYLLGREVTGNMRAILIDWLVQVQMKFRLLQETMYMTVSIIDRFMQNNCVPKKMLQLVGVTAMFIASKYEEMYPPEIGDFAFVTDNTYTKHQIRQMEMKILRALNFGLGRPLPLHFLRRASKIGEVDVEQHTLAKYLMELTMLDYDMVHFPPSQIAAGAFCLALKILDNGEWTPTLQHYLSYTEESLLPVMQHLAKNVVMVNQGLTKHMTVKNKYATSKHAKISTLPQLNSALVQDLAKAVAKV
Chain of CDK9/cyclin T1 (O60563 whole entry): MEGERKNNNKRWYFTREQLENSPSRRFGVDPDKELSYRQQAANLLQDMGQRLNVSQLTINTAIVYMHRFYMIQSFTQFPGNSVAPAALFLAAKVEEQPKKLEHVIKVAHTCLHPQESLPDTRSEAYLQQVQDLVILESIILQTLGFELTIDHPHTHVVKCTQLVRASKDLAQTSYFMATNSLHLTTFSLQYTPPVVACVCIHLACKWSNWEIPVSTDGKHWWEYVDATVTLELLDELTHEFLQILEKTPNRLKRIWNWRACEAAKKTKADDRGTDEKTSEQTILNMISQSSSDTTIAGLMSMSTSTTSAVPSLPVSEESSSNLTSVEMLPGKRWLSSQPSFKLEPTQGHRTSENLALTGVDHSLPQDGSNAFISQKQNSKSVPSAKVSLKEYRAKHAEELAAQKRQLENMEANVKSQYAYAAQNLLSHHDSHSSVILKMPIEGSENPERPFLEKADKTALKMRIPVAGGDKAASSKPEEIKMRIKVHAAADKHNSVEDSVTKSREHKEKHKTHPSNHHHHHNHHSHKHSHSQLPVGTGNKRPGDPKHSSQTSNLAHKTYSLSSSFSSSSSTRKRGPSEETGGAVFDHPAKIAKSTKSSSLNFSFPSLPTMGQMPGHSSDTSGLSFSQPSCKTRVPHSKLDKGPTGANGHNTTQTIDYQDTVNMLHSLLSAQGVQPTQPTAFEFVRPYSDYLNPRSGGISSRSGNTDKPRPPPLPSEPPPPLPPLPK
Chain of CDK9/cyclin T1 (P50750 whole entry): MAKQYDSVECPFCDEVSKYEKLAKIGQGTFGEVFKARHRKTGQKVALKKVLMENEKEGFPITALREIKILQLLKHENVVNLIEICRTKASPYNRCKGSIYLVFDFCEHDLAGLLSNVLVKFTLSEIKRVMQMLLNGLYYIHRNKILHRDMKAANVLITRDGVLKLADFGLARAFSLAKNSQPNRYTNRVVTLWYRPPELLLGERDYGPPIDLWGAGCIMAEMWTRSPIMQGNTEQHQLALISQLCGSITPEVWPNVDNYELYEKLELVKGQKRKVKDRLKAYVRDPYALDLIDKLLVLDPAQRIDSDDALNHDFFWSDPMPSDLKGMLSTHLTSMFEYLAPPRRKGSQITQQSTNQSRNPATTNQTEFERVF

As to `Nc1nc(N[C@H]2C[C@@H]3CC[C@H]2C3)sc1C(=O)c1ccccc1[N+](=O)[O-]`, the negative logarithm of the IC50 (pIC50) (in general, the negative decadic logarithm of the IC50, by convention in mol/L) in [1] was 6.86; against CDK2/Cyclin A2 it was 6.63; in assay [2], 6.44; on CDK3/Cyclin E, 6.40; in assay [3], 6.95; in assay [4], 6.80. Further, the pIC50 is 6.73 in assay [5], 6.15 in assay [6], 6.26 against CDK7/Cyclin H/MNAT1 and 8.30 on CDK9/cyclin T1. Besides, in the assay filed under Homo sapiens, the Ratio IC50 came to 22.5.
